*1 amine or outer side, *2 acyl side, *3 side chain or, on linkers, in order; H or OH if unused. Where a SMILES comes first, the peptide text is derived from it. Bridges are numbered along the chain shown (N, C = ends). Side-chain parts run from the residue outwards. [ ]: non-standard residue; d: D form. The star is where a group is joined. X12 = O=C(O)CCCCCCCCCCCCCCCCC(=O)C[C@@H](CCC(=O)*)C(=O)O; Me3N+(CH2)2O(CH2)2O(CH2)2CO = C[N+](C)(C)CCOCCOCCC(=O)*; PEG12 = NCCOCCOCCOCCOCCOCCOCCOCCOCCOCCOCCOCCOCCC(=O)O; Trp(7-Me) = Cc1cccc2c(C[C@H](N)C(=O)O)c[nH]c12; X37 = Cc1cccc2c1CC=C2C[C@H](N[*:1])C(=O)[*:2]; C20 diacid = O=C(O)CCCCCCCCCCCCCCCCCCC(=O)*; C18 diacid = O=C(O)CCCCCCCCCCCCCCCCC(=O)*; CH2CH2OCH2CH2NMe3+ = C[N+](C)(C)CCOCC*; γGlu = O=C(O)[C@H](CCC(=O)[*:2])N[*:1]; 2Nal = N[C@@H](Cc1ccc2ccccc2c1)C(=O)O; 3Pal = N[C@@H](Cc1cccnc1)C(=O)O; Lys(Me) = CNCCCC[C@H](N)C(=O)O; Pen = CC(C)(S)[C@H](N)C(=O)O; Thp = NC1(C(=O)O)CCOCC1; X1 = C[N+](C)(C)CCCCC*; AEEA = NCCOCCOCC(=O)O; Sar = CNCC(=O)O
Tests used:
[1] = target: T1, IL-23R (Homo sapiens, UniProt Q5VWK5); experiment: IL23R Reporter Assay; format: cell-based; details: HEK293 cells containing IL-23R, IL-12Rβ1 and STAT-inducible firefly luciferase reporter; 10 ng/mL IL-23 (EC90); 5 h
T1 construct: HEK293 cells containing IL-23R, IL-12Rβ1 and a firefly luciferase reporter gene driven by a STAT-inducible promoter (Promega); host or cells: HEK293
T1 sequence (Q5VWK5 24-629): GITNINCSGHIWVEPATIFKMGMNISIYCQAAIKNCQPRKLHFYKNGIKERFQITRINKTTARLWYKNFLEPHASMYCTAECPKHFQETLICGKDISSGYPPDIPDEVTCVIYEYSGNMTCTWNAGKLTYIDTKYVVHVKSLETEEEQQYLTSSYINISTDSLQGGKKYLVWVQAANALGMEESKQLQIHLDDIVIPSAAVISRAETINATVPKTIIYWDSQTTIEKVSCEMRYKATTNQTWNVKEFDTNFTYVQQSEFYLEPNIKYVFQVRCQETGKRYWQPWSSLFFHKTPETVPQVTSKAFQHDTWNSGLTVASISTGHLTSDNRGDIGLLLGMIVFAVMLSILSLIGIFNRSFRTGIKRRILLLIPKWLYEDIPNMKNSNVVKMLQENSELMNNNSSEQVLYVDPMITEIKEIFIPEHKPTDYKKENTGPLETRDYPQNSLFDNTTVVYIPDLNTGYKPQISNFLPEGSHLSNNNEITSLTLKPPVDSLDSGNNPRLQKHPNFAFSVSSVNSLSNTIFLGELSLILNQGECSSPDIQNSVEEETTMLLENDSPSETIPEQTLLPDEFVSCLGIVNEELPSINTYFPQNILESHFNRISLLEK
Method in brief: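 IC50 values were fitted with a 4-parameter Hill equation to luciferase signal, scaled between IL-23-only wells (0% inhibition) and 30 μM reference inhibitor (100%). The readout was a STAT-inducible reporter in IL-23R/IL-12Rβ1 HEK293 cells, stimulated with added 10 ng/mL IL-23 (EC90) for 5 h at 37° C and developed with BioGlo.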

[2] = tested on: IL-23-stimulated phosphorylated STAT3 in peripheral blood mononuclear cells (PBMCs); experiment: PBMC pSTAT3 Assay; format: cell-based; details: PBMCs from healthy donors; 30 min preincubation with peptide; IL-23 5 ng/mL for 30 min; phospho-STAT3 by MSD
Method in brief: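 Phospho-STAT3 quantified by Meso Scale assay in lysates of PBMCs exposed to IL-23 (5 ng/mL, 30 min, 37 °C) after 30 min peptide pretreatment. Cells were cryopreserved donor PBMCs activated 4 days with anti-CD3 plus IL-1β (100 ng/mL) and starved ~4 h; IC50 reported.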

IC50 [1] | SMILES | IC50 [2]
50 to 500 nM | CC(=O)N(C)CCCC[C@@H]1NC(=O)[C@H](Cc2c[nH]c3ccccc23)NC(=O)[C@H]([C@@H](C)O)NC(=O)[C@H](CCCCNC(=O)COCCOCCNC(=O)COCCOCCNC(=O)CC[C@H](NC(=O)CCCCCCCCCCCCCCCCC(=O)O)C(=O)O)NC(=O)[C@@H](NC(=O)CCOCCOCC[N+](C)(C)C)C(C)(C)SSC(C)(C)[C@@H](C(=O)N[C@@H](Cc2ccc(OCCCCC[N+](C)(C)C)cc2)C(=O)N[C@@H](Cc2ccc3ccccc3c2)C(=O)NC2(C(=O)N[C@@H](CCCCN(C)C(C)=O)C(=O)N[C@@H](CC(N)=O)C(=O)N[C@@H](Cc3cccnc3)C(=O)N(C)CC(=O)N(C)C)CCOCC2)NC1=O [compound 122, cPEG3aCO-Pen(3)-K(PEG2PEG2gEC18OH)-T-7MeW-K(NMeAc)-Pen(3)-TMAPF-2Nal-THF-K(NMeAc)-N-3Pya-Sar-CON(Me)2] ({Me3N+(CH2)2O(CH2)2O(CH2)2CO}-[Pen]K([AEEA-AEEA-γGlu-C18 diacid])TW[Lys(Me)](Ac)[Pen]Y(X1)[2Nal][Thp][Lys(Me)](Ac)N[3Pal][Sar]-NMe2; disulfide 1-6) | < 0.5 nM
< 50 nM | CC(=O)NCCCC[C@@H]1NC(=O)[C@H](Cc2c[nH]c3c(C)cccc23)NC(=O)[C@H]([C@@H](C)O)NC(=O)[C@H](CC(N)=O)NC(=O)[C@@H](NC(=O)[C@@H](CCCNC(=N)N)NC(C)=O)C(C)(C)SSC(C)(C)[C@@H](C(=O)N[C@@H](Cc2ccc(OCCCCC[N+](C)(C)C)cc2)C(=O)N[C@@H](Cc2ccc3ccccc3c2)C(=O)NC2(C(=O)N[C@@H](CCCCNC(=O)CCOCCOCCOCCOCCOCCOCCOCCOCCOCCOCCOCCOCCNC(=O)CC[C@H](NC(=O)CCCCCCCCCCCCCCCCC(=O)O)C(=O)O)C(=O)N[C@@H](CC(N)=O)C(=O)N[C@@H](Cc3cccnc3)C(=O)N(C)CC(=O)N(C)C)CCOCC2)NC1=O [compound 123, cPEG3aCO-Pen(3)-N(N(Me)2)-T-7MeW-K(NMeAc)-Pen(3)-TMAPF-2Nal-THP-K(PEG12gEC18OH)-N-3Pya-Sar-CON(Me)2] (Ac-[dR][Pen]NT[Trp(7-Me)]K(Ac)[Pen]Y(X1)[2Nal][Thp]K([PEG12-γGlu-C18 diacid])N[3Pal][Sar]-NMe2; disulfide 2-7) | < 0.5 nM
< 50 nM | CC(=O)N(C)CCCC[C@H](NC(=O)C1(NC(=O)[C@H](Cc2ccc3ccccc3c2)NC(=O)[C@H](Cc2ccc(OCCCCC[N+](C)(C)C)cc2)NC(=O)[C@H]2NC(=O)[C@H](CCCCNC(=O)CCOCCOCCOCCOCCOCCOCCOCCOCCOCCOCCOCCOCCNC(=O)CC[C@H](NC(=O)CCCCCCCCCCCCCCCCC(=O)O)C(=O)O)NC(=O)[C@H](CC3=CCc4c(C)cccc43)NC(=O)[C@H]([C@@H](C)O)NC(=O)[C@H](CC(=O)N(C)C)NC(=O)[C@@H](NC(=O)CCOCCOCC[N+](C)(C)C)C(C)(C)SSC2(C)C)CCOCC1)C(=O)N[C@@H](CC(N)=O)C(=O)N[C@@H](Cc1cccnc1)C(=O)N(C)CC(=O)N(C)C [compound 124, cPEG3aCO-Pen(3)-N(N(Me)2)-T-7MeW-K(PEG12gEC18OH)-Pen(3)-TMAPF-2Nal-THP-K(NMeAc)-N-3Pya-Sar-CON(Me)2] ({Me3N+(CH2)2O(CH2)2O(CH2)2CO}-[Pen]D(NMe2)T[X37]K([PEG12-γGlu-C18 diacid])[Pen]Y(X1)[2Nal][Thp][Lys(Me)](Ac)N[3Pal][Sar]-NMe2; disulfide 1-6) | < 0.5 nM
< 50 nM | CC(=O)N(C)CCCC[C@@H]1NC(=O)[C@H](Cc2c[nH]c3c(C)cccc23)NC(=O)[C@H]([C@@H](C)O)NC(=O)[C@H](CCCCNC(=O)CCOCCOCCOCCOCCOCCOCCOCCOCCOCCOCCOCCOCCNC(=O)CC[C@H](CC(=O)CCCCCCCCCCCCCCCCC(=O)O)C(=O)O)NC(=O)[C@@H](NC(=O)CCOCCOCC[N+](C)(C)C)C(C)(C)SSC(C)(C)[C@@H](C(=O)N[C@@H](Cc2ccc(OCCCCC[N+](C)(C)C)cc2)C(=O)N[C@@H](Cc2ccc3ccccc3c2)C(=O)NC2(C(=O)N[C@@H](CCCCN(C)C(C)=O)C(=O)N[C@@H](CC(N)=O)C(=O)N[C@@H](Cc3cccnc3)C(=O)N(C)CC(=O)N(C)C)CCOCC2)NC1=O [compound 125, cPEG3aCO-Pen(3)-K(PEG12gEC18OH)-T-7MeW-K(NMeAc)-Pen(3)-TMAPF-2Nal-THP-K(NMeAc)-N-3Pya-Sar-CON(Me)2] ({Me3N+(CH2)2O(CH2)2O(CH2)2CO}-[Pen]K([PEG12-X12])T[Trp(7-Me)][Lys(Me)](Ac)[Pen]Y(X1)[2Nal][Thp][Lys(Me)](Ac)N[3Pal][Sar]-NMe2; disulfide 1-6) | 0.5 to 5 nM
< 50 nM | CC(=O)NCCCC[C@@H]1NC(=O)[C@H](Cc2c[nH]c3c(C)cccc23)NC(=O)[C@H]([C@@H](C)O)NC(=O)[C@H](CC(N)=O)NC(=O)[C@@H](NC(=O)CCOCCOCC[N+](C)(C)C)C(C)(C)SSC(C)(C)[C@@H](C(=O)N[C@@H](Cc2ccc(OCCCCC[N+](C)(C)C)cc2)C(=O)N[C@@H](Cc2ccc3ccccc3c2)C(=O)NC2(C(=O)N[C@@H](CCCCNC(=O)COCCOCCNC(=O)COCCOCCNC(=O)CC[C@H](NC(=O)CCCCCCCCCCCCCCCCCCC(=O)O)C(=O)O)C(=O)N[C@@H](N)C(=O)N[C@@H](Cc3ccccn3)C(=O)N(C)CC(N)=O)CCOCC2)NC1=O [compound 126, cPEG3aCO-Pen(3)-N(N(Me)2)-T-7MeW-K(NMeAc)-Pen(3)-TMAPF-2Nal-THP-K(PEG2PEG2gEC20OH)-N-3Pya-Sar-CON(Me)2] | < 0.5 nM
50 to 500 nM | C=C(N[C@@H](CC(N)=O)C(=O)N[C@@H](CC)C(C)N(C)CC(=O)N(C)C)[C@H](CCCCN(C)C(C)=O)NC(=O)C1(NC(=O)[C@H](Cc2ccc3ccccc3c2)NC(=O)[C@H](Cc2ccc(OCCCCC[N+](C)(C)C)cc2)NCC2NC(=O)[C@H](CCCCNC(=O)COCCOCCNC(=O)COCCOCCNC(=O)CC[C@H](NC(=O)CCCCCCCCCCCCCCCCCCC(=O)O)C(=O)O)NC(=O)[C@H](CC3=CCc4c(C)cccc43)NC(=O)[C@H]([C@@H](C)O)NC(=O)[C@H](CC(=O)N(C)C)NC(=O)[C@@H](NC(=O)CCOCCOCC[N+](C)(C)C)C(C)(C)SSC2(C)C)CCCCC1 (stereo partly drawn) [compound 127, cPEG3aCO-Pen(3)-N(N(Me)2)-T-7MeW-K(PEG2PEG2gEC20OH)-Pen(3)-TMAPF-2Nal-THP-K(NMeAc)-N-3Pya-Sar-CON(Me)2] | 0.5 to 5 nM
50 to 500 nM | CC(=O)N(C)CCCC[C@@H]1NC(=O)[C@H](Cc2c[nH]c3c(C)cccc23)NC(=O)[C@H]([C@@H](C)O)NC(=O)[C@H](CCCCNC(=O)COCCOCCNC(=O)COCCOCCNC(=O)CC[C@H](NC(=O)CCCCCCCCCCCCCCCCCCC(=O)O)C(=O)O)NC(=O)[C@@H](NC(=O)CCOCCOCC[N+](C)(C)C)C(C)(C)SSC(C)(C)[C@@H](C(=O)N[C@@H](Cc2ccc(OCCCCC[N+](C)(C)C)cc2)C(=O)N[C@@H](Cc2ccc3ccccc3c2)C(=O)NC2(C(=O)N[C@@H](CCCCN(C)C(C)=O)C(=O)N[C@@H](CC(N)=O)C(=O)N[C@@H](Cc3cccnc3)C(=O)N(C)CC(=O)N(C)C)CCOCC2)NC1=O [compound 128, cPEG3aCO-Pen(3)-K(PEG2PEG2gEC20OH)-T-7MeW-K(NMeAc)-Pen(3)-TMAPF-2Nal-THP-K(NMeAc)-N-3Pya-Sar-CON(Me)2] ({Me3N+(CH2)2O(CH2)2O(CH2)2CO}-[Pen]K([AEEA-AEEA-γGlu-C20 diacid])T[Trp(7-Me)][Lys(Me)](Ac)[Pen]Y(X1)[2Nal][Thp][Lys(Me)](Ac)N[3Pal][Sar]-NMe2; disulfide 1-6) | 0.5 to 5 nM
< 50 nM | CC(=O)N(C)CCCC[C@@H]1NC(=O)[C@H](Cc2c[nH]c3c(C)cccc23)NC(=O)[C@H]([C@@H](C)O)NC(=O)[C@H](CC(=O)N(C)C)NC(=O)[C@@H](NC(=O)[C@@H](CCCCNC(=O)COCCOCCNC(=O)COCCOCCNC(=O)CC[C@H](NC(=O)CCCCCCCCCCCCCCCCCCC(=O)O)C(=O)O)NC(=O)CCOCCOCC[N+](C)(C)C)C(C)(C)SSC(C)(C)[C@@H](C(=O)N[C@@H](Cc2ccc(OCCOCC[N+](C)(C)C)cc2)C(=O)N[C@@H](Cc2ccc3ccccc3c2)C(=O)NC2(C(=O)N[C@@H](CCCCN(C)C(C)=O)C(=O)N[C@@H](CC(N)=O)C(=O)N[C@@H](Cc3cccnc3)C(=O)N(C)CC(=O)N(C)C)CCOCC2)NC1=O [compound 129, cPEG3aCO-K(PEG2PEG2gEC20OH)-Pen(3)-N(N(Me)2)-T-7MeW-K(NMeAc)-Pen(3)-TMAPF-2Nal-THP-K(NMeAc)-N-3Pya-Sar-CON(Me)2] ({Me3N+(CH2)2O(CH2)2O(CH2)2CO}-[dK]([AEEA-AEEA-γGlu-C20 diacid])[Pen]D(NMe2)T[Trp(7-Me)][Lys(Me)](Ac)[Pen]Y(CH2CH2OCH2CH2NMe3+)[2Nal][Thp][Lys(Me)](Ac)N[3Pal][Sar]-NMe2; disulfide 2-7) | < 0.5 nM
